Each structure is given as a SMILES string. Numbered stars: 1 amine (or outer) side, 2 acyl side, 3 side chain; on linkers, the order of the positions; unused ones are H or OH. Square brackets hold non-standard residues; d marks the D form. Peptide text beside a SMILES is read from it. * marks the point of attachment. DOTA = O=C(O)CN1CCN(CC(=O)O)CCN(CC(=O)*)CCN(CC(=O)O)CC1; X1 = O=C(C1CSC(c2nc3ccc(N[*:1])cc3s2)=N1)[*:2]; X2 = N#Cc1ccc2cc(OCCCN*)ccc2n1; SEt = CCS*

This is an account of results in patent US9642922B2, “Caspase-triggered nano-aggregation probes and methods of use” (The Board of Trustees of the Leland Stanford Junior …, priority 2013, dated 2017).

Series [1] addresses T1, cathepsin B (Homo sapiens, UniProt P07858).
T1 construct: Cathepsin B (human liver; 0.27 U; 7.35×10^−4 mg, Calbiochem); purchased Calbiochem; host or cells: human liver (tissue-derived)
Description: HPLC enzyme specificity assay of C-SNAF, cathepsin B. It counts as biochemical. The settings on record: 25 μM probe, 0.735 μg/ml enzyme, pH 5.5. The method, then: The specificity of C-SNAF towards other representative cysteine proteases such as caspase-7, caspase-9, cathepsin B, and legumain was examined.
(§1) Caspase (human, recombinant from E. coli) assays were performed for caspase-3 (4.9×10^−3 U; 7.35×10^−4 mg, Sigma), −7 (18.3 U; 7.35×10^−4 mg, Calbiochem), and −9 (0.3 U; 7.35×10^−4 mg, Calbiochem). All caspase assays were conducted in caspase buffer with 50 mM HEPES, 100 mM NaCl, 1 mM EDTA, 10 mM TCEP, 10% glycerol, and 0.1% CHAPS at pH 7.4. Cathepsin B (human liver; 0.27 U; 7.35×10^−4 mg, Calbiochem) and Legumain (human, recombinant from mouse myeloma cell line; >250 pmol/min/μg; 7.35×10^−4 mg, R&D Systems) were conducted in reaction buffer with 50 mM sodium acetate, 50 mM NaCl, 0.5 mM EDTA and 10 mM TCEP at pH 5.5. C-SNAF was diluted in the respective enzyme reaction buffer (25 μM, 1 mL) and remained at room temperature for 10 min, to which was then added the respective enzymes. Reactions were performed at 37° C., and monitored by HPLC hourly. The percentage conversion of the reaction was calculated based on the percentage of peak area of C-SNAF-cycl in the HPLC trace at 675 nm UV detection, which indicated the efficacy of enzyme cleavage of C-SNAF.

Series [2] addresses T2, caspase-3 (Homo sapiens, UniProt P42574).
T2 sequence (P42574 29-175 limits assumed): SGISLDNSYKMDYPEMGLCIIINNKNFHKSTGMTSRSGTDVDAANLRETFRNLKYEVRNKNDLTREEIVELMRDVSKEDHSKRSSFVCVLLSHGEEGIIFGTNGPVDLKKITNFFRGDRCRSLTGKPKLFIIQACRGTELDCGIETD
T2 sequence (P42574 176-277 limits assumed): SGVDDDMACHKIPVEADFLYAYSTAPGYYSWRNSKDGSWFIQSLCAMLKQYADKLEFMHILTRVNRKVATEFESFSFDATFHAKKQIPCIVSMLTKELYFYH
The series can be described thus: HPLC assay of caspase-3-triggered macrocyclization of C-SNAF. It counts as biochemical. More on the design: purchased Sigma; host or cells: E. coli. The settings on record: probe 25 μM, caspase-3, 6 h. The protocol: The progression of caspase-3-triggered macrocyclization of C-SNAF to form C-SNAF-cycl in solution was monitored using high-performance liquid chromatography (HPLC) following incubation of the probe (25 μM) with recombinant human caspase-3 (4.9×10^−[…]).
as §1

The target of series [3] is T1, cathepsin B. Description: T1 measurement of probe 15 with cathepsin B. It counts as biochemical. The settings on record: probe 208 μM, protease 50 nM, 1 T. The protocol: (§2) The enzyme specificity of probe 15 was studied by measuring the T1 value resulting from probe incubation (208 μM) with any of five relevant subcellular proteases (caspase-3, -7, -9, cathepsin B and legumain) in enzyme buffer. […] The reduced T1 value in solution was inhibited by the caspase inhibitor Z-VAD-fmk (50 μM).
Cathepsin B (human liver; 0.27 U; 7.35×10^−4 mg, Calbiochem) and Legumain (human, recombinant from mouse myeloma cell line; >250 pmol/min/μg; 7.35×10^−4 mg, R&D Systems) were conducted in reaction buffer with 50 mM sodium acetate, 50 mM NaCl, 0.5 mM EDTA and 10 mM TCEP at pH 5.5. The C-SNAF was diluted in the respective enzyme reaction buffer (25 μM, 1 mL) and remained at room temperature for 10 min, to which was added respective enzymes.

The target of series [4] is T3, caspase-9 (Homo sapiens, UniProt P55211).
T3 construct: purchased Calbiochem; host or cells: E. coli
Description: T1 measurement of probe 15 with caspase-9. As to conditions: probe 208 μM, protease 50 nM, 1 T. It counts as biochemical. The method, then: as §2
Caspase (human, recombinant from E. coli) assays were performed for caspase-3 (4.9×10^−3 U; 7.35×10^−4 mg, Sigma), −7 (18.3 U; 7.35×10^−4 mg, Calbiochem), and −9 (0.3 U; 7.35×10^−4 mg, Calbiochem). All caspase assays were conducted in caspase buffer with 50 mM HEPES, 100 mM NaCl, 1 mM EDTA, 10 mM TCEP, 10% glycerol, and 0.1% CHAPS at pH 7.4.

Series [5] in a line: Water proton r1 relaxivity measurement. As to conditions: 1 T. It counts as physicochemical. The protocol:
Water proton r1 relaxivities of probe 15 and 1-ctrl (19) before and after caspase-3 incubation were then measured at 1, 1.5 and 3 T. For comparison, the isolated cyclized products 2-I and 2-II were also measured.
A series of solutions containing contrast agents with five different concentrations (0.05-0.5 mM) in Caspase buffer (pH 7.4) were treated with or without Casp-3 (50 nM) at 37° C. overnight. The solutions were placed in PCR tubes, bundled together, and MR-imaged at 1 T (Bruker Icon, Bruker BioSpin Corp.), […], 1.5 and 3 T (Signa HDx, GE Healthcare) at room temperature.
The scanning procedure began with a localizer and then consisted of a series of inversion-prepared fast spin echo scans, identical in all aspects (TR 8000 ms (6000 ms for Bruker Icon), TE minimum, field of view 6 cm, slice thickness 2 mm, matrix 128×128, NEX 1) except for the inversion time (TI) that was varied as: 4000, 2400, 1200, 800, 600, 400, 300, 200, 100, and 50 ms. For quantitative data analysis, the acquired MR images were transferred as DICOM images to an offline workstation, and signal intensities were extracted from each of the 5 samples at each of the 10 TI times by manual region of interest (ROI) placement and voxel averaging within the ROI.
Signal intensity versus TI relationships were fit to the following exponential T1 recovery model by non-linear least squares regression: SI (TI)=S0[1−2*exp(−TI/T1)+exp(−TR/T1)]. Relaxation rates (R1) were determined as 1/T1. Longitudinal relaxivities (r1, units of mM^−1s^−1) were calculated as the slope of R1 vs [Gd] after the determination of true Gd concentration of each sample by the ICP-MS measurement.

The test system of series [6] is viable HeLa cells. The series can be described thus: Cell viability study (trypan blue). In kind it is cell-based, human. The settings on record: 250 μM for 24 h. The protocol: About 2×10^5 HeLa cells in 1 mL DMEM medium were seeded onto 12-well plates. […] After 24 h incubation, the medium was removed, and the cells were trypsinized. The cell number was counted using trypan blue assay. The viability of cell with blank medium was set as 100%, and cells incubating with 1 or Dotarem were normalized to that in blank medium.

T3 sequence (P55211 1-315 limits assumed): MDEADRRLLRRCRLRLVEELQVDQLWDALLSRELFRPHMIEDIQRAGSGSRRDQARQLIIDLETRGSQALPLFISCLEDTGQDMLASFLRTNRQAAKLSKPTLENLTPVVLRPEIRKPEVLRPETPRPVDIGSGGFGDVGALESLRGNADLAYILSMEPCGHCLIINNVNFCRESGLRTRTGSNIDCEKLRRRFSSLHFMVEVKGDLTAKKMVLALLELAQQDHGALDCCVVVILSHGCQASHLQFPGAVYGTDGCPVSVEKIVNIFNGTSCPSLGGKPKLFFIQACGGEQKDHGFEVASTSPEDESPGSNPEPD

Consider `CCSSC[C@@H](NC(=O)[C@H](CC(=O)O)NC(=O)[C@@H](NC(=O)[C@H](CCC(=O)O)NC(=O)[C@H](CC(=O)O)NC(C)=O)C(C)C)C(=O)N[C@@H](CCCCNC(=O)CCCCCN1C(=CC=CC=CC2=[N+](CC)c3ccc4c(S(=O)(=O)[O-])cc(S(=O)(=O)O)cc4c3C2(C)C)C(C)(C)c2c1ccc1c(S(=O)(=O)O)cc(S(=O)(=O)O)cc21)C(=O)Nc1ccc2nc(C3=N[C@@H](C(=O)NCCCOc4ccc5nc(C#N)ccc5c4)CS3)sc2c1` [C-SNAF], for which the “activation by cathepsin B” value in series [1] is listed as “neither lysosomal cysteine proteases cathepsin B nor legumain could significantly activate”. Besides, the “conversion to C-SNAF-cycl after 6 h” value in series [2] is given as “almost completely converted to C-SNAF-cycl”.
Consider `CCSSCC(NC(=O)C(CC(=O)O)NC(=O)C(NC(=O)C(CCC(=O)O)NC(=O)C(CC(=O)O)NC(C)=O)C(C)C)C(=O)NC(CCCCNC(=O)CN1CCN(CC(=O)[O-])CCN(CC(=O)[O-])CCN(CC(=O)[O-])CC1)C(=O)Nc1ccc2nc(C3=NC(C(=O)NCCCOc4ccc5nc(C#N)ccc5c4)CS3)sc2c1.[Gd+3]` (centres unmarked) [probe 15] (Ac-DEVDC(SEt)K(DOTA)[X1]-X2; configuration not given here), for which the “T1 value after incubation with cathepsin B” value in series [3] is on record as “No reduced T1 value”. Also, the “T1 value after incubation with caspase-9” value in series [4] was “No reduced T1 value”. Moreover, in series [5], the “r1 after activation higher than Dotarem” value is “about 510%”, the “r1 after activation higher than before activation” value is reported as “about 106%”, the “r1 relaxivity upon caspase-3 activation” value is on record as “approximately 29.3 mM^−1 s^−1” and the “r1 relaxivity without caspase-3 activation” value was found to be 14.2 mM⁻¹ s⁻¹. In series [5] (listed as Gd-based MRI probe), the “r1 after activation higher than before activation” value is recorded as 106% and the “r1 relaxivity upon caspase-3 activation” value turned out to be 29.3 mM⁻¹ s⁻¹. The “cytotoxicity, effect on cell viability” value in series [6] was “no adverse effects on cell viability”.
